Assay results from patent US9701670B2, “Pyrazolyl-ureas as kinase inhibitors” (RESPIVERT LIMITED, priority 2013, dated 2017).

Tests used:
[1] = tested on: Differentiated U937 cells; test: (l) Cell viability: MTT assay; assay type: cell-based, human; settings: 1 μg/mL
Method in brief: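 Differentiated U937 cells were exposed to compound at 1 or 10 μg/mL either 4 h in 5% FCS RPMI1640 or 24 h in 10% FCS RPMI1640, then given MTT for 1 h, DMSO-solubilised and read at 550 nm. Percent viability loss versus 0.5% DMSO vehicle; apparent gains appear negative.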

[2] = biological target: p38 MAPKα isoform (MAPK14) (Homo sapiens (Human), UniProt Q16539); test: p38 MAPKα enzyme inhibition (FRET, Z-LYTE), Method 1; assay type: biochemical; settings: Method 1 (Table 4a1)
p38 MAPKα isoform (MAPK14), sequence (Q16539 whole entry, canonical isoform): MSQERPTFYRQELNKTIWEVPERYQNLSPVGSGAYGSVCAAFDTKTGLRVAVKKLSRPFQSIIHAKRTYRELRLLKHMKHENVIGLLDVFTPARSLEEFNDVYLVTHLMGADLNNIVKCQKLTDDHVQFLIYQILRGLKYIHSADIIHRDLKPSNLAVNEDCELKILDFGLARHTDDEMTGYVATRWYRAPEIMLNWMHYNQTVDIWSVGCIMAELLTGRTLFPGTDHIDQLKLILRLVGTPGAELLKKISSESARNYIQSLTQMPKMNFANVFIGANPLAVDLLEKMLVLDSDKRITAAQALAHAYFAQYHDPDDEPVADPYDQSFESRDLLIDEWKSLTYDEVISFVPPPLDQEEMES

Compound	IC50 [2] [nM]	Cell viability at time point in d-U937 cells 4 h [1]	Cell viability at time point in d-U937 cells 24 h [1]
COc1cc(Nc2nccc(Oc3ccc(NC(=O)Nc4cc(C(C)(C)C)nn4-c4ccc(C)cc4)c4ccccc34)n2)cc(C(=O)NCCN2CCOCC2)c1 [Example 52, 3-((4-((4-(3-(3-(tert-butyl)-1-(p-tolyl)-1H-pyrazol-5-yl)ureido)naphthalen-1-yl)oxy)pyrimidin-2-yl)amino)-5-methoxy-N-(2-morpholinoethyl)benzamide]	13	−ve (−ve and +ve indicate that the value is below and above respectively, the no significant effect threshold, defined as 30% inhibition at 1 μg/mL at the time point indicated.)	−ve (−ve and +ve indicate that the value is below and above respectively, the no significant effect threshold, defined as 30% inhibition at 1 μg/mL at the time point indicated.)
COCCOc1cccc(-n2nc(C(C)(C)C)cc2NC(=O)Nc2ccc(Oc3ccnc(Nc4cc(OC)cc(C(=O)NCCN5CCOCC5)c4)n3)c3ccccc23)c1 [Example 55, 3-((4-((4-(3-(3-(tert-butyl)-1-(3-(2-methoxyethoxy)phenyl)-1H-pyrazol-5-yl)ureido)naphthalen-1-yl)oxy)pyrimidin-2-yl)amino)-5-methoxy-N-(2-morpholinoethyl)benzamide]	9	−ve (−ve and +ve indicate that the value is below and above respectively, the no significant effect threshold, defined as 30% inhibition at 1 μg/mL at the time point indicated.)	−ve (−ve and +ve indicate that the value is below and above respectively, the no significant effect threshold, defined as 30% inhibition at 1 μg/mL at the time point indicated.)
COc1cc(Nc2nccc(Oc3ccc(NC(=O)Nc4cc(C(C)C)nn4-c4ccc(C)c(C)c4)c4ccccc34)n2)cc(C(=O)NCCN2CCOCC2)c1 [Example 56, 3-((4-((4-(3-(1-(3,4-dimethylphenyl)-3-isopropyl-1H-pyrazol-5-yl)ureido)naphthalen-1-yl)oxy)pyrimidin-2-yl)amino)-5-methoxy-N-(2-morpholinoethyl)benzamide]	< 1	−ve (−ve and +ve indicate that the value is below and above respectively, the no significant effect threshold, defined as 30% inhibition at 1 μg/mL at the time point indicated.)	−ve (−ve and +ve indicate that the value is below and above respectively, the no significant effect threshold, defined as 30% inhibition at 1 μg/mL at the time point indicated.)
Cc1ccc(-n2nc(C(C)C)cc2NC(=O)Nc2ccc(Oc3ccnc(Nc4cc(Cl)cc(C(=O)NCCN5CCOCC5)c4)n3)c3ccccc23)cc1 [Example 60, 3-chloro-5-((4-((4-(3-(3-isopropyl-1-(p-tolyl)-1H-pyrazol-5-yl)ureido)naphthalen-1-yl)oxy)pyrimidin-2-yl)amino)-N-(2-morpholinoethyl)benzamide]	16	−ve (−ve and +ve indicate that the value is below and above respectively, the no significant effect threshold, defined as 30% inhibition at 1 μg/mL at the time point indicated.)	−ve (−ve and +ve indicate that the value is below and above respectively, the no significant effect threshold, defined as 30% inhibition at 1 μg/mL at the time point indicated.)
Cc1ccc(-n2nc(C(C)(C)C)cc2NC(=O)Nc2ccc(Oc3ccnc(Nc4cc(Br)cc(C(=O)NCCN5CCOCC5)c4)n3)c3ccccc23)cc1 [Example 62, 3-bromo-5-((4-((4-(3-(3-(tert-butyl)-1-(p-tolyl)-1H-pyrazol-5-yl)ureido)naphthalen-1-yl)oxy)pyrimidin-2-yl)amino)-N-(2-morpholinoethyl)benzamide]	22	−ve (−ve and +ve indicate that the value is below and above respectively, the no significant effect threshold, defined as 30% inhibition at 1 μg/mL at the time point indicated.)	+ve (−ve and +ve indicate that the value is below and above respectively, the no significant effect threshold, defined as 30% inhibition at 1 μg/mL at the time point indicated.)
COc1cc(Nc2nccc(Oc3ccc(NC(=O)Nc4cc(C(C)(C)C)nn4-c4ccc(C)cc4)c4ccccc34)n2)cc(C(=O)NCCO)c1 [Example 64, 3-((4-((4-(3-(3-(tert-butyl)-1-(p-tolyl)-1H-pyrazol-5-yl)ureido)naphthalen-1-yl)oxy)pyrimidin-2-yl)amino)-N-(2-hydroxyethyl)-5-methoxybenzamide]	8	−ve (−ve and +ve indicate that the value is below and above respectively, the no significant effect threshold, defined as 30% inhibition at 1 μg/mL at the time point indicated.)	−ve (−ve and +ve indicate that the value is below and above respectively, the no significant effect threshold, defined as 30% inhibition at 1 μg/mL at the time point indicated.)
COc1ccc(-n2nc(C(C)C)cc2NC(=O)Nc2ccc(Oc3ccnc(Nc4cc(OC)cc(C(=O)NCCO)c4)n3)c3ccccc23)cc1 [Example 65, N-(2-hydroxyethyl)-3-((4-((4-(3-(3-isopropyl-1-(4-methoxyphenyl)-1H-pyrazol-5-yl)ureido)naphthalen-1-yl)oxy)pyrimidin-2-yl)amino)-5-methoxybenzamide]	23	−ve (−ve and +ve indicate that the value is below and above respectively, the no significant effect threshold, defined as 30% inhibition at 1 μg/mL at the time point indicated.)	−ve (−ve and +ve indicate that the value is below and above respectively, the no significant effect threshold, defined as 30% inhibition at 1 μg/mL at the time point indicated.)
COCCNC(=O)c1cc(Nc2nccc(Oc3ccc(NC(=O)Nc4cc(C(C)C)nn4-c4ccc(C)cc4)c4ccccc34)n2)cc(OC)c1 [Example 66, 3-((4-((4-(3-(3-isopropyl-1-(p-tolyl)-1H-pyrazol-5-yl)ureido)naphthalen-1-yl)oxy)pyrimidin-2-yl)amino)-5-methoxy-N-(2-methoxyethyl)benzamide]	24	−ve (−ve and +ve indicate that the value is below and above respectively, the no significant effect threshold, defined as 30% inhibition at 1 μg/mL at the time point indicated.)	−ve (−ve and +ve indicate that the value is below and above respectively, the no significant effect threshold, defined as 30% inhibition at 1 μg/mL at the time point indicated.)

Continued, in another order:

IC50 [2] [nM]	Compound	Cell viability at time point in d-U937 cells 4 h [1]	Cell viability at time point in d-U937 cells 24 h [1]
12	COc1ccc(-n2nc(C(C)(C)C)cc2NC(=O)Nc2ccc(Oc3ccnc(Nc4cc(OC)cc(C(=O)NCCN5CCOCC5)c4)n3)c3ccccc23)cc1 [Example 54, 3-((4-((4-(3-(3-(tert-butyl)-1-(4-methoxyphenyl)-1H-pyrazol-5-yl)ureido)naphthalen-1-yl)oxy)pyrimidin-2-yl)amino)-5-methoxy-N-(2-morpholinoethyl)benzamide]	−ve (−ve and +ve indicate that the value is below and above respectively, the no significant effect threshold, defined as 30% inhibition at 1 μg/mL at the time point indicated.)	−ve (−ve and +ve indicate that the value is below and above respectively, the no significant effect threshold, defined as 30% inhibition at 1 μg/mL at the time point indicated.)
< 1	COc1ccc(-n2nc(C3CCCO3)cc2NC(=O)Nc2ccc(Oc3ccnc(Nc4cc(OC)cc(C(=O)NCCN5CCOCC5)c4)n3)c3ccccc23)cc1 (stereo not drawn) [Example 58, 3-methoxy-5-((4-((4-(3-(1-(4-methoxyphenyl)-3-(tetrahydrofuran-2-yl)-1H-pyrazol-5-yl)ureido)naphthalen-1-yl)oxy)pyrimidin-2-yl)amino)-N-(2-morpholinoethyl)benzamide]	−ve (−ve and +ve indicate that the value is below and above respectively, the no significant effect threshold, defined as 30% inhibition at 1 μg/mL at the time point indicated.)	−ve (−ve and +ve indicate that the value is below and above respectively, the no significant effect threshold, defined as 30% inhibition at 1 μg/mL at the time point indicated.)
2	COc1ccc(-n2nc(C3CCOC3)cc2NC(=O)Nc2ccc(Oc3ccnc(Nc4cc(OC)cc(C(=O)NCCN5CCOCC5)c4)n3)c3ccccc23)cc1 (stereo not drawn) [Example 59, 3-methoxy-5-((4-((4-(3-(1-(4-methoxyphenyl)-3-(tetrahydrofuran-3-yl)-1H-pyrazol-5-yl)ureido)naphthalen-1-yl)oxy)pyrimidin-2-yl)amino)-N-(2-morpholinoethyl)benzamide]	−ve (−ve and +ve indicate that the value is below and above respectively, the no significant effect threshold, defined as 30% inhibition at 1 μg/mL at the time point indicated.)	−ve (−ve and +ve indicate that the value is below and above respectively, the no significant effect threshold, defined as 30% inhibition at 1 μg/mL at the time point indicated.)
20	COc1ccc(-n2nc(C(C)C)cc2NC(=O)Nc2ccc(Oc3ccnc(Nc4cc(Cl)cc(C(=O)NCCN5CCOCC5)c4)n3)c3ccccc23)cc1 [Example 61, 3-chloro-5-((4-((4-(3-(3-isopropyl-1-(4-methoxyphenyl)-1H-pyrazol-5-yl)ureido)naphthalen-1-yl)oxy)pyrimidin-2-yl)amino)-N-(2-morpholinoethyl)benzamide]	−ve (−ve and +ve indicate that the value is below and above respectively, the no significant effect threshold, defined as 30% inhibition at 1 μg/mL at the time point indicated.)	−ve (−ve and +ve indicate that the value is below and above respectively, the no significant effect threshold, defined as 30% inhibition at 1 μg/mL at the time point indicated.)
